Results on 20 compounds are retold here after ChEMBL document CHEMBL4834468, “Enantioselective Synthesis and Profiling of Potent, Nonlinear Analogues of Antimalarial Tetraoxanes E209 and N205” (ACS Med Chem Lett, 2021).

The structures appear in SMILES notation. ≈ marks a conversion by molar mass, not a printed value.

The nature of data set [1]: Solubility of the compound in FaSSIF assessed as equilibrium pH. It counts as physicochemical. To be noted: simulated gi fluid.
Data set [2] relates to Plasmodium falciparum. As to the kind of experiment: microbe, parasite or virus in culture. To be noted: D10, 72 h.
Description: Antiplasmodial activity against chloroquine-sensitive Plasmodium falciparum D10 incubated for 72 hrs by spectrophotometry based parasite lactate dehydrogenase assay
Data set [3] is described as follows: Solubility of the compound in FaSSIF. Type of data set: physicochemical.
A short description of data set [4]: Solubility of compound in 0.1 M HCl assessed as equilibrium pH. It counts as physicochemical. To be noted: buffer.
Data set [5] in a line: Solubility of compound in 0.1 M HCl. It counts as physicochemical.
Data set [6] relates to Plasmodium falciparum. Nature of the data set: microbe, parasite or virus in culture. To be noted: W2, 72 h.
Description: Antiplasmodial activity against chloroquine-resistant Plasmodium falciparum W2 incubated for 72 hrs by spectrophotometry based parasite lactate dehydrogenase assay
A short description of data set [7]: AUC (infinity) in Sprague-Dawley rat at 10 mg/kg, po administered as single dose. Type of data set: ADME, organism-based. Also noted: time infinity, route oral, dose 10 mg/kg. To be noted: in vivo.
The nature of data set [8]: Aqueous solubility of compound in PBS at pH 7.4. It counts as physicochemical.
A short description of data set [9]: Tmax in Sprague-Dawley rat at 10 mg/kg, po administered as single dose. It counts as ADME, organism-based. To be noted: in vivo.
Data set [10] in a line: Cmax in Sprague-Dawley rat at 10 mg/kg, po administered as single dose. Also on record: route oral, dose 10 mg/kg. To be noted: in vivo. It counts as ADME, organism-based.
Data set [11] in a line: Oral bioavailability in Sprague-Dawley rat at 10 mg/kg administered as single dose. To be noted: in vivo. It counts as ADME, organism-based.
Data set [12] can be described thus: Intrinsic clearance in rat hepatocytes measured per 10^6 cells up to 120 mins by LC-MS analysis. It counts as ADME, cell-based, Hepatocyte. To be noted: read-out: CLH.
Data set [13] in a line: Intrinsic clearance in human liver microsome up to 30 mins by LC-MS analysis. It counts as ADME. To be noted: liver microsomes, read-out: CLH.
Data set [14] is described as follows: Intrinsic clearance in mouse liver microsome by LC-MS/MS analysis. Type of data set: ADME, microsomes.
Data set [15] concerns Plasmodium falciparum. Nature of the data set: Antiplasmodial activity against chloroquine-sensitive Plasmodium falciparum 3D7. It counts as functional, organism-based.
The nature of data set [16]: Intrinsic clearance in mouse liver microsome assessed as half life by LC-MS/MS analysis. It counts as ADME. To be noted: microsomes.

Turning to `FC1CCN(Cc2ccc(C3CCC4(CC3)OOC3(OO4)C4CC5CC(C4)CC3C5)cc2)CC1` (centres undefined), the figures for the pH in data set [1] and in data set [4] were 6.1 and 1, respectively. In addition, the IC50 in data set [2] was determined as 16.1 nM; in [6] it was 11.7 nM. The compound further registered a solubility at 1 h in data set [3] of 14.8 µg/mL (≈ 31.4 µM). The same compound gave a solubility in data set [5] of 101 µg/mL (≈ 214 µM).
`c1cc(C2CCC3(CC2)OOC2(OO3)C3CC4CC(C3)CC2C4)ccc1CN1CCOCC1` (centres undefined): the pH in [1] was 6.1; in [4], 1. This compound showed an AUC(0-inf) in data set [7] of 608 ng·h/mL. In addition, the solubility in [8] stood at 0.106 µM (≈ 0.0483 µg/mL); in data set [5], 21.2 µg/mL (≈ 46.5 µM). In addition, the IC50 in data set [2] was 9.38 nM; in data set [6], 8.65 nM. The compound also gave a solubility at 1 h in data set [3] of 24 µg/mL (≈ 52.7 µM). For the same compound, the time of peak concentration (Tmax) in [9] amounted to 4.33 h. Also, the highest level in data set [10] (Cmax) was 136 ng/mL. The compound also returned a bioavailability in data set [11] of 41.3%.
Regarding `FC1CCN(CCOc2ccc(C3CCC4(CC3)OOC3(OO4)C4CC5CC(C4)CC3C5)cc2)CC1` (centres undefined), the pH is given as 6.42 in [1] and 1.13 in [4]. Also, the solubility was 0.1 µM (≈ 0.0502 µg/mL) in data set [8] and 1790 µg/mL (≈ 3570 µM) in data set [5]. Also, the figures for the IC50 in data set [2] and in data set [6] were 8.96 nM and 8.49 nM, respectively. The same compound had a solubility at 1 h in [3] of 215 µg/mL (≈ 429 µM). Further, the hepatocyte CLint in data set [12] came to 12 µL/min/1e6 cells. In [13], the microsomal CLint came out at 23 µL/min/mg.
On to `c1cc(C2CCC3(CC2)OOC2(OO3)C3CC4CC(C3)CC2C4)ccc1OCCN1CCOCC1` (centres undefined), for which the results for the IC50 in [2] and in data set [6] were 12.4 nM and 10.1 nM, respectively.
For `c1cc([C@@H]2CCCC3(C2)OOC2(OO3)C3CC4CC(C3)CC2C4)ccc1CN1CCOCC1` (some centres undefined), the pH is reported as 6.43 in [1] and 1.12 in [4]. This compound also yielded a total exposure AUC(0-inf) in [7] of 1440 ng·h/mL. Moreover, the solubility came to 0.1 µM (≈ 0.0456 µg/mL) in [8] and 188 µg/mL (≈ 413 µM) in data set [5]. The figures for the concentration for half-maximal inhibition (IC50) in data set [2] and in data set [6] were 12.5 nM and 11.2 nM, respectively. This compound also showed a solubility at 1 h in data set [3] of 324 µg/mL (≈ 711 µM). In addition, in data set [9], the Tmax was determined as 2 h. Also, in data set [10], the peak level (Cmax) was 410 ng/mL. Moreover, the hepatocyte CLint in data set [12] was 26.2 µL/min/1e6 cells. Besides, the microsomal CLint in data set [13] is 27.1 µL/min/mg. Besides, the bioavailability in [11] was found to be 76.4%.
Take `FC1CCN(CCOc2ccc([C@H]3CCCC4(C3)OOC3(OO4)C4CC5CC(C4)CC3C5)cc2)CC1` (some centres undefined): the pH in data set [1] was 6.43; in data set [4], 1.14. Also, the values for the solubility in data set [8] and in [5] were 0.1 µM (≈ 0.0502 µg/mL) and 1270 µg/mL (≈ 2530 µM), respectively. The half-maximal inhibitory concentration (IC50) in [2] turned out to be 20.8 nM; in data set [6], 22.5 nM. The concentration in solution in [3] (solubility at 1 h) was 413 µg/mL (≈ 823 µM). The hepatocyte CLint in data set [12] is 16.7 µL/min/1e6 cells. Also, in data set [13], the microsomal CLint was 26.3 µL/min/mg.
For `c1cc(C2CCCC3(C2)OOC2(OO3)C3CC4CC(C3)CC2C4)ccc1OCCN1CCOCC1` (centres undefined), the values for the IC50 in data set [2] and in data set [6] were 16.4 nM and 17.7 nM, respectively.
On to `c1cc([C@H]2CCCC3(C2)OOC2(OO3)C3CC4CC(C3)CC2C4)ccc1OCCN1CCOCC1` (some centres undefined), for which the pH is given as 6.42 in [1] and 1.11 in data set [4]. The solubility turned out to be 0.1 µM (≈ 0.0486 µg/mL) in data set [8] and 284 µg/mL (≈ 585 µM) in data set [5]. Further, the IC50 in data set [2] amounted to 16 nM; in [6], 15.8 nM. The compound also registered a solubility at 1 h in data set [3] of 69 µg/mL (≈ 142 µM). For the same compound, in [12], the hepatocyte CLint turned out to be 49.2 µL/min/1e6 cells. For the same compound, the microsomal CLint in [13] was 22.1 µL/min/mg.
`NC1CCN(C(=O)O[C@@H]2CCC[C@]3(C2)OOC2(O3)C3CC4CC(C3)CC2C4)CC1` (some centres undefined) showed an EC50 in data set [6] of 1.8 nM. Further, the microsomal CLint in data set [14] (liver microsomes, read-out: CLH) is 155 µL/min/mg.
`FC1CCN(CCOc2ccc([C@@H]3CCCC4(C3)OOC3(OO4)C4CC5CC(C4)CC3C5)cc2)CC1` (some centres undefined): the solubility in data set [8] stood at 0.1 µM (≈ 0.0502 µg/mL). The values for the 50% inhibitory concentration (IC50) in [2] and in data set [6] were 17.5 nM and 19.2 nM, respectively. Moreover, the hepatocyte CLint in data set [12] was determined as 13.5 µL/min/1e6 cells. For the same compound, the microsomal CLint in data set [13] turned out to be 19.8 µL/min/mg.
Consider `FC1CCN(Cc2ccc([C@@H]3CCCC4(C3)OOC3(OO4)C4CC5CC(C4)CC3C5)cc2)CC1` (some centres undefined), for which the pH was 6.43 in data set [1] and 1.12 in data set [4]. Besides, the solubility in data set [8] is 0.1 µM (≈ 0.0472 µg/mL); in data set [5] it was 95 µg/mL (≈ 201 µM). In addition, the figures for the 50% inhibitory concentration (IC50) in [2] and in data set [6] were 10.6 nM and 10.3 nM, respectively. Moreover, the solubility at 1 h in [3] was 195 µg/mL (≈ 413 µM). Moreover, in [12], the hepatocyte CLint came out at 19.2 µL/min/1e6 cells. The microsomal CLint in data set [13] came to 35.9 µL/min/mg.
Compound `c1cc([C@@H]2CCCC3(C2)OOC2(OO3)C3CC4CC(C3)CC2C4)ccc1OCCN1CCOCC1` (some centres undefined) returned a solubility in [8] of 0.1 µM (≈ 0.0486 µg/mL). Moreover, the half-maximal inhibitory concentration (IC50) in data set [2] came to 17.4 nM; in [6], 16 nM. In addition, in data set [12], the hepatocyte CLint was 21.6 µL/min/1e6 cells. In data set [13], the microsomal CLint was 22.2 µL/min/mg.
As for `FC1CCN(Cc2ccc([C@H]3CCCC4(C3)OOC3(OO4)C4CC5CC(C4)CC3C5)cc2)CC1` (some centres undefined), the values for the pH in [1] and in data set [4] were 6.44 and 1.14, respectively. Moreover, the solubility was less than 0.1 µM in [8] and 60 µg/mL (≈ 127 µM) in data set [5]. Moreover, the concentration for half-maximal inhibition (IC50) in data set [2] is 16.5 nM; in data set [6], 14.9 nM. The compound further returned a solubility at 1 h in data set [3] of 189 µg/mL (≈ 401 µM). Also, the hepatocyte CLint in data set [12] amounted to 30.7 µL/min/1e6 cells. For the same compound, the microsomal CLint in data set [13] came to 26.7 µL/min/mg.
With `c1cc([C@H]2CCCC3(C2)OOC2(OO3)C3CC4CC(C3)CC2C4)ccc1CN1CCOCC1` (some centres undefined), the pH in [1] is given as 6.42; in [4], 1.13. Also, the solubility turned out to be 0.1 µM (≈ 0.0456 µg/mL) in data set [8] and 165 µg/mL (≈ 362 µM) in data set [5]. In addition, the IC50 in data set [2] and in data set [6] was 15.2 nM throughout. For the same compound, the solubility at 1 h in data set [3] was found to be 248 µg/mL (≈ 544 µM). Also, in [12], the hepatocyte CLint is 50.2 µL/min/1e6 cells. In addition, the microsomal CLint in data set [13] came to 19.7 µL/min/mg.
On to `c1cc(C2CCCC3(C2)OOC2(OO3)C3CC4CC(C3)CC2C4)ccc1CN1CCOCC1` (racemic), for which the IC50 is 15.4 nM in data set [2] and 11.2 nM in data set [6].
In the same order, the values of `FC1CCN(Cc2ccc(C3CCCC4(C3)OOC3(OO4)C4CC5CC(C4)CC3C5)cc2)CC1` (racemic) are 15.7 nM and 14.4 nM.
For `FC1CCN(CCOc2ccc(C3CCCC4(C3)OOC3(OO4)C4CC5CC(C4)CC3C5)cc2)CC1` (racemic) the same measures were 12.9 nM and 12.8 nM.
`c1cc([C@H]2CC[C@]3(CC2)OO[C@]2(O3)C3CC4CC(C3)CC2C4)ccc1OCCN1CCOCC1` [ARTEFENOMEL]: the pH in data set [1] is reported as 6.6. The amount in solution in data set [8] (solubility) came to 0.85 µM (≈ 0.399 µg/mL). For the same compound, in data set [3], the concentration in solution (solubility at 1 h) was 120 µg/mL (≈ 256 µM). This compound also yielded an IC50 in data set [15] of 5.1 nM.
As for `C[C@H]1[C@@H](O)O[C@@H]2O[C@@]3(C)CC[C@H]4[C@H](C)CC[C@@H]1[C@@]24OO3` [ARTENIMOL], the IC50 was 2.59 nM in [2] and 1.02 nM in [6].
In the case of `CC(C)(N)CNC(=O)C[C@H]1CC[C@]2(CC1)OO[C@]1(O2)C2CC3CC(C2)CC1C3` [OZ277], in data set [16], the t1/2 is 2.13 h. In data set [14] (microsomes), this compound yielded a CLH of 5.4 µL/min/mg.
